Source: PubChem BioAssay (NCI)
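Test compounds were applied to cells in 96-well plates for 48 hours at 5 doses. GI50 = concentration required for 50% inhibition of growth. Definition used: TGI = concentration required for complete inhibition of growth.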

How the values were obtained:
Assay in all cases: DTP human tumour cell line panel, 48 h
[1] = test system: HL-60(TB) leukemia
[2] = test system: LOX IMVI melanoma
[3] = test system: SR leukemia
[4] = test system: NCI-H23 lung
[5] = test system: MOLT-4 leukemia
[6] = test system: SK-MEL-2 melanoma
[7] = test system: CAKI-1 renal
[8] = test system: HCC-2998 colon
[9] = test system: ACHN renal
[10] = test system: U251 CNS

Row | Compound | TGI [1] [µM] | TGI [2] [µM] | TGI [3] [µM] | TGI [4] [µM] | TGI [5] [µM] | TGI [6] [µM] | TGI [7] [µM] | TGI [8] [µM] | TGI [9] [µM] | TGI [10] [µM] | GI50 [1] [µM] | GI50 [2] [µM] | GI50 [3] [µM] | GI50 [4] [µM] | GI50 [5] [µM] | GI50 [6] [µM] | GI50 [7] [µM] | GI50 [8] [µM] | GI50 [9] [µM] | GI50 [10] [µM]
1 | Cc1ccc2c(C3Cc4ccccc4N3C(=O)/C=C\C(=O)O)c(C)[nH]c2c1 (centres undefined) | 43.8 | > 100 | 72.9 | > 100 | 94.6 | 36 | > 100 | > 100 | > 100 | > 100 |  |  |  |  |  |  |  |  |  | 
2 | Fc1ccc(C2SCc3nc4ccccc4n32)c(F)c1 (centres undefined) | 56.2 | > 100 | > 100 | > 100 | > 100 | > 100 | > 100 | > 100 | > 100 | > 100 |  |  |  |  |  |  |  |  |  | 
3 | C[C@@H]1CN(Cc2ccc(F)cc2)[C@@H](C)CN1C(=O)c1cc2c(C(=O)C(=O)N(C)C)cn(C)c2cc1Cl | 63.2 | 28.4 | 39.2 | 57.2 | 45.5 | 36.3 | 67.4 | 34.4 | > 54.6 | 46.1 | 23.5 | 14.2 | 13.4 | 19.6 | 17.9 | 17 | 16.1 | 17.3 | 16.6 | 17.4
4 | COc1cc2c(cc1OCCCn1c(-c3ccccn3)nc3ccccc31)N=C[C@@H]1CCCN1C2=O | > 24.6 | 6.16 | > 20.1 | 3.77 | > 28.6 | 3.94 | 5.6 | 2.65 | 6.28 | 11.4 | 4.45 | 1.71 | 2.82 | 1.08 | 4.38 | 1.52 | 2.16 | 1.13 | 2.23 | 2.37
5 | O=C(/C=C/c1ccccc1)CCN1CCOCC1 | 16.4 | 24.8 | 53.3 | 31.8 | 29.7 | 44.5 | 16.4 | 38 | 28.6 | 31.7 |  |  |  |  |  |  |  |  |  | 
6 | O=c1[nH]c(=O)n(C2CC(O)C(COP(=O)(OCc3ccc([N+](=O)[O-])o3)N(CCCCCl)CC(O)CO)O2)cc1F (centres undefined) | > 100 | > 100 | > 100 | > 100 | > 100 | > 100 | 0.589 | > 100 | 12.6 | > 100 | 0.0262 | < 0.0226 | < 0.0269 | 2.79 | 0.285 | > 73.8 | 0.191 | 0.401 | < 0.0216 | 
7 | O=C(O)c1ccc(C(=O)c2ccccc2)c(C(=O)O)c1 | > 100 | > 100 | > 100 | > 100 | > 100 | > 100 | > 100 | > 100 | > 100 | > 100 |  |  |  |  |  |  |  |  |  | 
8 | O=C1/C(=C/c2ccccc2[N+](=O)[O-])Cc2ccccc21 | 7.12 | 4.39 | > 100 | 7 | 9.04 | 19.7 | > 100 | 3.14 | 4.87 | 10.6 | 2.85 | 1.88 | 0.495 | 2.2 | 2.92 | 5.39 | 3.13 | 1.64 | 1.87 | 2.89
